Where a chain is given by its changes, count along the chain named. Where “and” joins values, the source holds several entries; their conditions need not be identical. Equal entries are not always repeated.
Columns and labels:
[1] = molecular target: T1, WT ForT (Streptomyces kaniharaensis, UniProt A0A5S9CYM0); set-up: method as in PMID 31518483; settings: ForT-catalysed coupling to PRPP, two products with a new C-C bond; cited from earlier work
[2] = molecular target: T2, ForT/PRPP complex (Streptomyces kaniharaensis, UniProt A0A5S9CYM0); test: Binding of HPDA to the ForT/PRPP complex; settings: Li, unpublished
T2 sequence (A0A5S9CYM0 1-341): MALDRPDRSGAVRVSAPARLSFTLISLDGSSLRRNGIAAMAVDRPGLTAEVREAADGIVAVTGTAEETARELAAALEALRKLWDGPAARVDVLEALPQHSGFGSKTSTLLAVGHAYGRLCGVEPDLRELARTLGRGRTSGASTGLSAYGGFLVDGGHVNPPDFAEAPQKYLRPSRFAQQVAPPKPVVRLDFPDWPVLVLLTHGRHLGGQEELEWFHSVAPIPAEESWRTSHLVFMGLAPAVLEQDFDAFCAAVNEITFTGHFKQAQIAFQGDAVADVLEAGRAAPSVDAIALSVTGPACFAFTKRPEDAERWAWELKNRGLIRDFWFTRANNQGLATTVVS

[3] = molecular target: T1, WT ForT; test: Substrate scope of WT ForT, LC-MS assay; format: biochemical; settings: MgPRPP
Procedure: We assayed a series of pyrazoles as ForT substrates in which the extracyclic amine was replaced by hydrogen (PDA), nitro- (NPDA), methyl- (MPDA) and iodo- (IPDA) groups (figure 5a; electronic supplementary material, table S1). […] On the other hand, 4-amino-1H-pyrazole-3-carboxylate (APCA) can be coupled to PRPP by ForT to give two products containing a new C-C bond, albeit in less than 5% overall yield (figure 5b). In order to assess the importance of pyrazole substitution, we incubated 3-amino-1H-pyrazole-4-carboxylate (iso-APCA) (electronic supplementary material, table S2) and MgPRPP in the presence of ForT. […] Thus, the product was one of two possible C-N nucleotides.

[4] = molecular target: T3, S21A ForT variant (Streptomyces kaniharaensis, UniProt A0A5S9CYM0, S21A); test: biochemical
T3 sequence (A0A5S9CYM0 1-341 S21A): T2 sequence (A0A5S9CYM0 1-341) with S21A

[5] = molecular target: T4, T138V ForT variant (Streptomyces kaniharaensis, UniProt A0A5S9CYM0, T138V); test: biochemical
T4 sequence (A0A5S9CYM0 1-341 T138V): T2 sequence (A0A5S9CYM0 1-341) with T138V

[6] = molecular target: T5, E211A ForT variant (Streptomyces kaniharaensis, UniProt A0A5S9CYM0, E211A); test: biochemical
T5 sequence (A0A5S9CYM0 1-341 E211A): T2 sequence (A0A5S9CYM0 1-341) with E211A

[7] = molecular target: T6, L24A ForT variant (Streptomyces kaniharaensis, UniProt A0A5S9CYM0, L24A); test: biochemical
T6 sequence (A0A5S9CYM0 1-341 L24A): T2 sequence (A0A5S9CYM0 1-341) with L24A

[8] = molecular target: T7, T138A ForT variant (Streptomyces kaniharaensis, UniProt A0A5S9CYM0, T138A); test: biochemical
T7 sequence (A0A5S9CYM0 1-341 T138A): T2 sequence (A0A5S9CYM0 1-341) with T138A

[9] = molecular target: T1, WT ForT; test: ITC binding of PRPP to free enzyme, absence of Mg2+; settings: no Mg2+, room temperature
Source text: We therefore extended these studies to obtain the binding affinity of APDA to the ForT/PRPP binary complex at room temperature using isothermal calorimetry (ITC) measurements. […] The omission of the catalytically important metal ion thereby avoids any heat generated by catalytic turnover ‘contaminating’ heat released by ligand binding. As a result, these ITC studies report only on the affinity of PRPP and APDA for the free WT enzyme and its PRPP binary complex, respectively.

[10] = molecular target: T8, K263A ForT variant (Streptomyces kaniharaensis, UniProt A0A5S9CYM0, K263A); test: biochemical
T8 sequence (A0A5S9CYM0 1-341 K263A): T2 sequence (A0A5S9CYM0 1-341) with K263A

[11] = molecular target: T9, S174A ForT variant (Streptomyces kaniharaensis, UniProt A0A5S9CYM0, S174A); test: biochemical
T9 sequence (A0A5S9CYM0 1-341 S174A): T2 sequence (A0A5S9CYM0 1-341) with S174A

For Nc1cn[nH]c1C(=O)O [APCA, 4-amino-1H-pyrazole-3-carboxylate], the “overall yield of coupled products” value [1] is given as “less than 5%”.
For O=C(O)c1n[nH]c(C(=O)O)c1O [HPDA, 4-hydroxy-1H-pyrazole-3,5-dicarboxylic acid], the Kd [2] was 37000 nM and the “substrate for the ForT-catalysed coupling with PRPP” value (“substrate” below) [3] was “is not a substrate”.
For O=C(O)c1n[nH]c(C(=O)O)c1I [IPDA], the “substrate” value [3] was “None of these pyrazole-dicarboxylates proved to be substrates”.
For Cc1c(C(=O)O)n[nH]c1C(=O)O [MPDA], the “substrate” value [3] was “None of these pyrazole-dicarboxylates proved to be substrates”.
In the case of O=C(O)c1n[nH]c(C(=O)O)c1[N+](=O)[O-] [NPDA], the “substrate” value [3] is reported as “None of these pyrazole-dicarboxylates proved to be substrates”.
With O=C(O)c1cc(C(=O)O)[nH]n1 [PDA] the “substrate” value [3] was “None of these pyrazole-dicarboxylates proved to be substrates”.
With O=P(O)(O)OC[C@H]1O[C@H](OP(=O)(O)OP(=O)(O)O)[C@H](O)[C@@H]1O [PRPP, 5′-phosphoribose-1′-pyrophosphate] the Kd [4] was 350 ± 20 nM, the Kd [5] was 700 ± 400 nM and the Kd [6] was 950 ± 20 nM. The Kd [7] was 1500 ± 100 nM, the Kd [8] was 6700 ± 500 nM and the Kd [9] was 900 nM and 930 nM. It also gave a Kd [10] of 20000 ± 8000 nM and a Kd [11] of 6000 ± 300 nM.
For Nc1[nH]ncc1C(=O)O [iso-APCA, 3-amino-1H-pyrazole-4-carboxylate], the “substrate” value [3] was “a new product had been formed”.
